Source: patent publication EP1283052A1, “Pharmaceutical composition containing caspase-8 and /or caspase-9 useful for overcoming glucocorticoid- and cancer therapy-induced apoptosis of tumours” (Deutsches Krebsforschungszentrum Stiftung des öffentlichen …, priority 2001, dated 2003)

System: CD95-L, TRAIL and TNF-α
Assay: Western blot of death ligand expression in P5 and CEM cells
Assay type: cell-based, human
Details: cisplatin alone (1-5 µg/ml), both cell types; Fig. 2a
Protocol: • (a) Left: P5 an CEM cells were treated with cisplatin (1-5 µg/ml) in the absence or presence of DEX (1 µM) as indicated. Proteins were extracted and expression of CD95-L, TRAIL or TNF-α was detected by Western blot analysis. The size of the proteins in kDa is indicated. Right: HeLa and P5 were treated with CD95 agonistic antibody αAPO-1 (CD95, 1 µg/ml), recombinant TRAIL protein (TRAIL, 100 ng/ml) or recombinant TNF-α protein (TNF-α, 100 ng/ml) in the absence (white bars) or presence (black bars) of DEX (1 µM). 24 h later the percentage of apoptosis was determined by annexin-staining and FACS-analysis in untreated (CO) and stimulated cells at the time points indicated. • (b) P693 and CEM cells were treated with cisplatin (2 µg/ml) in the absence or presence of DEX as indicated. 24 and 48 h following treatment cells were lysed and caspase-8 activity was determined by a fluorescent caspase-8 assay and spectroscopy. • (c) P5 cells were stable transfected with empty vector (pcDNA3), or pcDNA3 vector encoding dominant negative FADD protein (FADD-DN). Proteins were extracted from both cell lines and expression of wildtype (WT) and FADD-DN (DN) was detected by Western blot. Left: Stable transfected P5 cells were treated with αAPO-1 (1 µg/ml) and 24 h later apoptosis was determined by staining with annexin/propidium iodide and flow-cytometry. […]

For `N.N.[Cl][Pt][Cl]` [cisplatin], the “expression of DILs such as CD95-L, TRAIL and TNF-α” value was “enhanced expression”.
